Measured values as given in patent US20220056018A1, “SREBP INHIBITORS COMPRISING A THIOPHENE CENTRAL RING” (Capulus Therapeutics, LLC, priority 2019, published 2022).
pIC50: −log10 of the molar value.

Columns and labels:
Assay in all cases: Cancer cell growth inhibition
Assay type in all cases: cell-based
A375 = settings: Homo sapiens, A-375; A375 (skin), 72 hr treatment
Method: (§1) The ability of select compounds to inhibit cell growth in various cancer cell lines are evaluated. […] The cell lines shown in Table 2 have reduced growth by at least 50% at 10 uM or lower over 72 hr treatment in growth media. The cell lines shown in Table 3 have reduced growth by at least 50% with an IC50 greater than 10 uM.
(§2) Six 10-fold compound dilutions are prepared in DMSO (e.g. 10 mM, 1 mM, 100 uM, 10 uM, 1 uM, and 0.1 uM). Single data points are acquired for each concentration. The final concentration of DMSO is 0.1%. The duration of the treatment is 72 hr. Growth inhibition is measured using Sulforhodamine B in a protein staining assay. Activity of the agents is determined by evaluation the following parameters: IC50, GI50, IC10, TGI, LC50, IC90, and GI90 (where these values can be calculated).

A549 = settings: Homo sapiens; A549 (lung), 72 hr treatment
Method: as §1, §2

BXPC3 = settings: Homo sapiens, BXPC-3; BXPC3 (pancreas), 72 hr treatment
Method: as §1, §2

CACO2 = settings: Homo sapiens, Caco-2; CACO2 (colon), 72 hr treatment
Method: as §1, §2

CALU6 = settings: Homo sapiens, Calu-6; CALU6 (lung), 72 hr treatment
Method: as §1, §2

CASKI = settings: Homo sapiens, Ca-Ski; CASKI (endometrial), 72 hr treatment
Method: as §1, §2

COLO205 = settings: Homo sapiens, COLO 205; COLO205 (colon), 72 hr treatment
Method: as §1, §2

EFO21 = settings: Homo sapiens, EFO-21; EFO21 (ovary), 72 hr treatment
Method: as §1, §2

HCT116 = settings: Homo sapiens, HCT-116; HCT116 (colon), 72 hr treatment
Method: as §1, §2

HELA = settings: Homo sapiens; HELA (endometrial), 72 hr treatment
Method: as §1, §2

HS578T = settings: Homo sapiens, Hs-578T; HS578T (breast), 72 hr treatment
Method: as §1, §2

HT29 = settings: Homo sapiens, HT-29; HT29 (colon), 72 hr treatment
Method: as §1, §2

JAR = JAR (placenta), 72 hr treatment
Method: as §1, §2

JEG3 = settings: Homo sapiens, JEG-3; JEG3 (placenta), 72 hr treatment
Method: as §1, §2

L-363 = settings: Homo sapiens; L-363 (hematological), 72 hr treatment
Method: as §1, §2

MDAMB231 = settings: Homo sapiens, MDA-MB-231; MDAMB231 (breast), 72 hr treatment
Method: as §1, §2

MDAMB436 = settings: Homo sapiens, MDA-MB-436; MDAMB436 (breast), 72 hr treatment
Method: as §1, §2

MG63 = settings: Homo sapiens, MG-63; MG63 (bone), 72 hr treatment
Method: as §1, §2

MINO = settings: Homo sapiens; MINO (hematological), 72 hr treatment
Method: as §1, §2

MT3 = settings: MT-3; MT3 (breast), 72 hr treatment
Method: as §1, §2

MV4-11 = settings: Homo sapiens; MV4-11 (hematological), 72 hr treatment
Method: as §1, §2

NCIH82 = settings: Homo sapiens, NCI-H82; NCIH82 (lung), 72 hr treatment
Method: as §1, §2

OVCAR3 = settings: Homo sapiens, OVCAR-3; OVCAR3 (ovary), 72 hr treatment
Method: as §1, §2

OVCAR4 = settings: Homo sapiens, OVCAR-4; OVCAR4 (ovary), 72 hr treatment
Method: as §1, §2

PANC1 = settings: Homo sapiens, PANC-1; PANC1 (pancreas), 72 hr treatment
Method: as §1, §2

RD = settings: Homo sapiens; RD (muscle), 72 hr treatment
Method: as §1, §2

SU-DHL-10 = settings: Homo sapiens, SU-DHL10; SU-DHL-10 (hematological), 72 hr treatment
Method: as §1, §2

SW620 = settings: Homo sapiens, SW-620; SW620 (colon), 72 hr treatment
Method: as §1, §2

T24 = settings: Homo sapiens, T-24; T24 (bladder), 72 hr treatment
Method: as §1, §2

TE671 = settings: Homo sapiens, TE-671; TE671 (muscle), 72 hr treatment
Method: as §1, §2

THP-1 = settings: Homo sapiens; THP-1 (hematological), 72 hr treatment
Method: as §1, §2

U2OS = settings: Homo sapiens; U2OS (bone), 72 hr treatment
Method: as §1, §2

Q: With `CC(C)(CO)c1cc(-c2csc(-c3ccc(NS(C)(=O)=O)cc3Cl)c2)ccn1` [Compound I-8909, N-(3-chloro-4-(4-(2-(1-hydroxy-2-methylpropan-2-yl)pyridin-4-yl)thiophen-2-yl)phenyl)methanesulfonamide] as the compound, how does the pIC50 (A375) read?
A: < 5.00

Q: What about the pIC50 (A549) of the same compound?
A: > 5.00

Q: And the pIC50 (BXPC3)?
A: < 5.00

Q: What about the pIC50 (CACO2) of the same compound?
A: > 5.00

Q: And the pIC50 (CALU6)?
A: > 5.00

Q: What about the pIC50 (CASKI) of the same compound?
A: < 5.00

Q: And the pIC50 (COLO205)?
A: > 5.00

Q: What about the pIC50 (EFO21) of the same compound?
A: > 5.00

Q: What about the pIC50 (HCT116) of the same compound?
A: > 5.00

Q: And the pIC50 (HELA)?
A: > 5.00

Q: And the pIC50 (HS578T)?
A: < 5.00

Q: And the pIC50 (HT29)?
A: > 5.00

Q: And the pIC50 (JAR)?
A: > 5.00

Q: What about the pIC50 (JEG3) of the same compound?
A: > 5.00

Q: And the pIC50 (L-363)?
A: > 5.00

Q: What about the pIC50 (MDAMB231) of the same compound?
A: < 5.00

Q: What about the pIC50 (MDAMB436) of the same compound?
A: < 5.00

Q: What about the pIC50 (MG63) of the same compound?
A: < 5.00

Q: And the pIC50 (MINO)?
A: > 5.00

Q: And the pIC50 (MT3)?
A: > 5.00

Q: What about the pIC50 (MV4-11) of the same compound?
A: > 5.00

Q: What about the pIC50 (NCIH82) of the same compound?
A: > 5.00

Q: And the pIC50 (OVCAR3)?
A: > 5.00

Q: What about the pIC50 (OVCAR4) of the same compound?
A: > 5.00

Q: And the pIC50 (PANC1)?
A: > 5.00

Q: What about the pIC50 (RD) of the same compound?
A: < 5.00

Q: And the pIC50 (SU-DHL-10)?
A: > 5.00

Q: And the pIC50 (SW620)?
A: < 5.00

Q: And the pIC50 (T24)?
A: < 5.00

Q: And the pIC50 (TE671)?
A: > 5.00

Q: And the pIC50 (THP-1)?
A: > 5.00

Q: What about the pIC50 (U2OS) of the same compound?
A: < 5.00

Q: How did the pIC50 (A375) turn out when `CC(C)(O)Cc1cc(-c2csc(-c3ccc(NS(C)(=O)=O)cc3Cl)c2)ccn1` [Compound I-9004, N-(3-chloro-4-(4-(2-(2-hydroxy-2-methylpropyl)pyridin-4-yl)thiophen-2-yl)phenyl)methanesulfonamide] was run?
A: < 5.00

Q: And the pIC50 (A549)?
A: > 5.00

Q: And the pIC50 (BXPC3)?
A: < 5.00

Q: What about the pIC50 (CACO2) of the same compound?
A: > 5.00

Q: And the pIC50 (CALU6)?
A: > 5.00

Q: What about the pIC50 (CASKI) of the same compound?
A: < 5.00

Q: And the pIC50 (COLO205)?
A: > 5.00

Q: And the pIC50 (EFO21)?
A: > 5.00

Q: What about the pIC50 (HCT116) of the same compound?
A: > 5.00

Q: And the pIC50 (HELA)?
A: > 5.00

Q: What about the pIC50 (HS578T) of the same compound?
A: < 5.00

Q: What about the pIC50 (HT29) of the same compound?
A: > 5.00

Q: What about the pIC50 (JAR) of the same compound?
A: > 5.00

Q: What about the pIC50 (JEG3) of the same compound?
A: > 5.00

Q: What about the pIC50 (L-363) of the same compound?
A: > 5.00

Q: And the pIC50 (MDAMB231)?
A: < 5.00

Q: What about the pIC50 (MDAMB436) of the same compound?
A: > 5.00

Q: And the pIC50 (MG63)?
A: < 5.00

Q: What about the pIC50 (MINO) of the same compound?
A: > 5.00

Q: And the pIC50 (MT3)?
A: > 5.00

Q: What about the pIC50 (MV4-11) of the same compound?
A: > 5.00

Q: What about the pIC50 (NCIH82) of the same compound?
A: > 5.00

Q: What about the pIC50 (OVCAR3) of the same compound?
A: > 5.00

Q: What about the pIC50 (OVCAR4) of the same compound?
A: > 5.00

Q: What about the pIC50 (PANC1) of the same compound?
A: > 5.00

Q: And the pIC50 (RD)?
A: < 5.00

Q: And the pIC50 (SU-DHL-10)?
A: > 5.00

Q: What about the pIC50 (SW620) of the same compound?
A: < 5.00

Q: And the pIC50 (T24)?
A: < 5.00

Q: What about the pIC50 (TE671) of the same compound?
A: > 5.00

Q: What about the pIC50 (THP-1) of the same compound?
A: > 5.00

Q: What about the pIC50 (U2OS) of the same compound?
A: < 5.00

Q: With `CS(=O)(=O)Nc1ccc(-c2cc(-c3ccnc4c3OCCO4)cs2)c(Cl)c1` [Compound I-9017, N-(3-chloro-4-(4-(2,3-dihydro-[1,4]dioxino[2,3-b]pyridin-8-yl)thiophen-2-yl)phenyl)methanesulfonamide] as the compound, how does the pIC50 (A375) read?
A: < 5.00

Q: What about the pIC50 (A549) of the same compound?
A: > 5.00

Q: And the pIC50 (BXPC3)?
A: > 5.00

Q: What about the pIC50 (CACO2) of the same compound?
A: > 5.00

Q: What about the pIC50 (CALU6) of the same compound?
A: > 5.00

Q: What about the pIC50 (CASKI) of the same compound?
A: < 5.00

Q: What about the pIC50 (COLO205) of the same compound?
A: > 5.00

Q: And the pIC50 (EFO21)?
A: > 5.00

Q: And the pIC50 (HCT116)?
A: > 5.00

Q: What about the pIC50 (HELA) of the same compound?
A: > 5.00

Q: What about the pIC50 (HS578T) of the same compound?
A: < 5.00

Q: What about the pIC50 (HT29) of the same compound?
A: > 5.00

Q: And the pIC50 (JAR)?
A: > 5.00

Q: What about the pIC50 (JEG3) of the same compound?
A: > 5.00

Q: And the pIC50 (L-363)?
A: > 5.00

Q: And the pIC50 (MDAMB231)?
A: < 5.00

Q: What about the pIC50 (MDAMB436) of the same compound?
A: > 5.00

Q: And the pIC50 (MG63)?
A: < 5.00

Q: And the pIC50 (MINO)?
A: > 5.00

Q: And the pIC50 (MT3)?
A: > 5.00

Q: And the pIC50 (MV4-11)?
A: > 5.00

Q: What about the pIC50 (NCIH82) of the same compound?
A: > 5.00

Q: What about the pIC50 (OVCAR3) of the same compound?
A: > 5.00

Q: What about the pIC50 (OVCAR4) of the same compound?
A: > 5.00

Q: What about the pIC50 (PANC1) of the same compound?
A: > 5.00

Q: What about the pIC50 (RD) of the same compound?
A: < 5.00

Q: What about the pIC50 (SU-DHL-10) of the same compound?
A: > 5.00

Q: And the pIC50 (SW620)?
A: > 5.00

Q: What about the pIC50 (T24) of the same compound?
A: > 5.00

Q: And the pIC50 (TE671)?
A: > 5.00

Q: What about the pIC50 (THP-1) of the same compound?
A: > 5.00

Q: What about the pIC50 (U2OS) of the same compound?
A: > 5.00
